The subject of the assay is Plasmodium berghei. Nature of the assay: Luciferase/luciferin-expressing antifolate-resistant parasites were used to infect a culture of HepG2 cells that were pre-incubated with compounds. Infected hepatocytes emit light due to the luciferase reaction. Assay results are presented as the percent inhibition of light emission compared to control. […]. As to conditions: sporozoite; for IC90: read-out: LUCIFERASE INFECTION ASSAY - IC90. It is filed as functional.

The mark [1] stands for this setting: read-out: LUCIFERASE INFECTION ASSAY - IC50.

Structures are written as SMILES.

With `Nc1nc(C2COc3ccccc3O2)ncc1S(=O)(=O)c1ccc(Cl)cc1` (stereo not drawn), the IC90 (as a rule, the concentration at which the effect reaches the 90% level) is > 8.17 µM. Besides, the concentration for half-maximal inhibition (IC50) (as a rule, the concentration that gives 50% inhibition) (PBLUC_HILL_SLOPE 11.1, PBLUC_R_SQUARED 0.295, read-out: LUCIFERASE INFECTION ASSAY - IC50) stood at 7.39 µM.
`Cc1onc(-c2c(Cl)cccc2Cl)c1NC(=O)Nc1ccc(Cl)cc1`: the IC90 was 2.89 µM. In addition, the IC50 under setting [1] was found to be 0.334 µM.
With `COc1ccc(C(=O)OCC(=O)Nc2sccc2C(N)=O)cc1S(=O)(=O)N1CCCCC1C` (stereo not drawn), the concentration for an effect of 90% (IC90) was > 10 µM. Also, the concentration for half-maximal inhibition (IC50) (HEPG2TOX_HILL_SLOPE 5.31, HEPG2TOX_R_SQUARED 0.826, PBLUC_HILL_SLOPE 1.98, PBLUC_R_SQUARED 0.24, read-out: LUCIFERASE INFECTION ASSAY - IC50) was 5.17 µM.
As for `CCc1ccc(C2NC(=O)NC(C)=C2C(=O)c2ccccc2)cc1` (stereo not drawn), the IC90 was > 10 µM. In addition, under setting [1], the IC50 is > 10 µM.
On to `CN(C)c1cccc(-c2cnc3cnc(-c4cccc(C(=O)NCCO)c4)cn23)c1`, for which the 90% effect concentration (IC90) was > 8.22 µM. The IC50 (PBLUC_HILL_SLOPE 1.98, PBLUC_R_SQUARED 0.622, read-out: LUCIFERASE INFECTION ASSAY - IC50) came to 5.11 µM.
Take `CC(Oc1ccc(-c2ccc(C#N)cc2)cc1)C(=O)C12CC3CC(CC(C3)C1)C2` (stereo not drawn): the IC90 is > 10 µM. Moreover, the IC50 (PBLUC_HILL_SLOPE 2.77, PBLUC_R_SQUARED 0.53, read-out: LUCIFERASE INFECTION ASSAY - IC50) turned out to be 5.65 µM.
As to `Oc1c(Cl)cc(Cl)cc1/C=C/c1ccc2cccc(O)c2n1`, the concentration for an effect of 90% (IC90) was found to be 7.78 µM. The concentration for half-maximal inhibition (IC50) (HEPG2TOX_HILL_SLOPE 10.3, HEPG2TOX_R_SQUARED 0.191, PBLUC_HILL_SLOPE 3.13, PBLUC_R_SQUARED 0.48, read-out: LUCIFERASE INFECTION ASSAY - IC50) came to 3.86 µM.
Regarding `CN(C)Cc1nc(O)c2c(n1)-c1ccccc1CC2(C)C`, the IC90 turned out to be 4.32 µM. The IC50 (PBLUC_HILL_SLOPE 13.2, PBLUC_R_SQUARED 0.272, read-out: LUCIFERASE INFECTION ASSAY - IC50) turned out to be 3.66 µM.
As to `Cc1c(C)c(C)c(S(=O)(=O)N2CCN(C(C)C(=O)NC3CC3)CC2)c(C)c1C` (stereo not drawn), the 90% effect concentration (IC90) turned out to be 9.56 µM. The IC50 (PBLUC_HILL_SLOPE 4.98, PBLUC_R_SQUARED 0.411, read-out: LUCIFERASE INFECTION ASSAY - IC50) was 6.15 µM.
Regarding `Cc1ccccc1Sc1ccc(NC(=O)c2ccc(F)cc2)cc1C#N`, the IC90 was > 9.11 µM. Moreover, the IC50 under setting [1] is > 9.11 µM.
On to `CS(=O)(=O)c1ncc(Cl)c(C(=O)C(C#N)c2nc3ccccc3s2)n1` (stereo not drawn), for which the IC90 is 3.59 µM. Under setting [1], the half-maximal inhibitory concentration (IC50) was determined as 3.08 µM.
For the compound `O=C(Nc1nc(=O)n(C(=O)c2cccs2)s1)c1ccccc1`, the concentration for an effect of 90% (IC90) is > 9.96 µM. For the same compound, the IC50 under setting [1] was > 9.96 µM.
With `O=C(COC(=O)c1cn(-c2ccccc2)nc1-c1ccccc1)Nc1ccc(Cl)c(S(=O)(=O)N2CCOCC2)c1`, the 90% effect concentration (IC90) was > 10 µM. Also, the IC50 (PBLUC_HILL_SLOPE 2.11, PBLUC_R_SQUARED 0.445, read-out: LUCIFERASE INFECTION ASSAY - IC50) was determined as 5.37 µM.
Take `CN(C)C(=O)c1ccc(-c2ccnc3n[nH]c(-c4ccc(Cl)cc4)c23)cc1`: the IC90 turned out to be 7.75 µM. In addition, under “HEPG2TOX_HILL_SLOPE 12.3, HEPG2TOX_R_SQUARED 0.411, PBLUC_HILL_SLOPE 3.78, PBLUC_R_SQUARED 0.252, read-out: LUCIFERASE INFECTION ASSAY - IC50”, the IC50 came to 4.33 µM.
In the case of `CN(C)C(=O)c1ccc(-c2cc3c(Nc4cccc(C(F)(F)F)c4)nccc3n2C)cc1`, the 90% effect concentration (IC90) turned out to be 6.54 µM. Further, the concentration for half-maximal inhibition (IC50) (PBLUC_HILL_SLOPE 4.75, PBLUC_R_SQUARED 0.5, read-out: LUCIFERASE INFECTION ASSAY - IC50) worked out at 4.12 µM.
In the case of `O=c1cc(-c2ccccc2)[nH]c2cc(-c3ccccc3)nn12`, the 90% effect concentration (IC90) was > 11.5 µM. Also, the IC50 (HEPG2TOX_HILL_SLOPE 1.32, HEPG2TOX_R_SQUARED 0.936, PBLUC_HILL_SLOPE 1.62, PBLUC_R_SQUARED 0.566, read-out: LUCIFERASE INFECTION ASSAY - IC50) is 3.75 µM.
`CCc1nnc(NC(=O)C2CCCN2S(=O)(=O)c2ccc(OC)cc2)s1` (stereo not drawn): the IC90 is > 8.32 µM. Also, under setting [1], the half-inhibitory concentration (IC50) turned out to be 4.85 µM.
For the compound `CCc1nnc(NC(=O)/C=C/c2cc(Cl)c(OC(C)C)c(OC)c2)s1`, the concentration for an effect of 90% (IC90) was > 10 µM. Also, the half-maximal inhibitory concentration (IC50) (HEPG2TOX_HILL_SLOPE 1.31, HEPG2TOX_R_SQUARED 0.955, PBLUC_HILL_SLOPE 2.51, PBLUC_R_SQUARED 0.0872, read-out: LUCIFERASE INFECTION ASSAY - IC50) came out at 6.82 µM.
On to `Cn1c(Nc2ccccc2)nc2cnc(-c3cccc4ccccc34)cc21`, for which the concentration for an effect of 90% (IC90) was determined as 4.66 µM. Besides, the IC50 (HEPG2TOX_HILL_SLOPE 1.56, HEPG2TOX_R_SQUARED 0.963, PBLUC_HILL_SLOPE 1.41, PBLUC_R_SQUARED 0.827, read-out: LUCIFERASE INFECTION ASSAY - IC50) came to 0.98 µM.
For `CCN(CC)C(CNC(=O)c1ccc2c(c1)OCC(=O)N2)c1ccccc1Cl` (stereo not drawn), the IC90 turned out to be 8.02 µM. Also, the half-inhibitory concentration (IC50) (PBLUC_HILL_SLOPE 4.94, PBLUC_R_SQUARED 0.519, read-out: LUCIFERASE INFECTION ASSAY - IC50) was 5.14 µM.
Regarding `COc1cccc(-n2c(C)cc(C(=O)CSc3ncc(C#N)c(N)n3)c2C)c1`, the IC90 was > 8.39 µM. The IC50 under setting [1] was > 8.39 µM.
As to `CCCN1C(=O)C(=O)N(CN2CCc3sccc3C2)C1=O`, the 90% effect concentration (IC90) is > 2 µM. Under setting [1], the IC50 is > 2 µM.
Take `O=C(NC1CCCC1)c1ccc(-c2cn3c(-c4ccc(C(=O)NC5CC5)cc4)cnc3cn2)cc1`: the IC90 was > 7.09 µM. Moreover, where the note is “PBLUC_HILL_SLOPE 2.95, PBLUC_R_SQUARED 0.52, read-out: LUCIFERASE INFECTION ASSAY - IC50”, the IC50 was determined as 4.87 µM.
Regarding `Oc1cccc2c(NC(S)=Nc3ccc(OC(F)F)cc3)cccc12`, the IC90 worked out at 5.27 µM. The IC50 (HEPG2TOX_HILL_SLOPE 12, HEPG2TOX_R_SQUARED 0.725, PBLUC_HILL_SLOPE 8.83, PBLUC_R_SQUARED 0.0853, read-out: LUCIFERASE INFECTION ASSAY - IC50) was 4.11 µM.
For `COc1nc(-c2ccccc2)cc(-c2ccc3c(c2)OCO3)c1C#N`, the concentration for an effect of 90% (IC90) turned out to be 5.77 µM. Where the note is “HEPG2TOX_HILL_SLOPE 1.05, HEPG2TOX_R_SQUARED 0.733, PBLUC_HILL_SLOPE 1.42, PBLUC_R_SQUARED 0.508, read-out: LUCIFERASE INFECTION ASSAY - IC50”, the 50% inhibitory concentration (IC50) amounted to 1.23 µM.
As to `CN(C)CCCCCCOc1ccc2c(c1)CCC1C2CCC2(C)C(=O)CCC12` (stereo not drawn), the concentration for an effect of 90% (IC90) was > 8.3 µM. Besides, under “PBLUC_HILL_SLOPE 2.65, PBLUC_R_SQUARED 0.355, read-out: LUCIFERASE INFECTION ASSAY - IC50”, the IC50 was determined as 3.69 µM.
For `CNc1cc(-c2ccc(O)cc2C)nc2ccnn12`, the concentration for an effect of 90% (IC90) stood at 8.61 µM. Besides, the concentration for half-maximal inhibition (IC50) (HEPG2TOX_HILL_SLOPE 3.86, HEPG2TOX_R_SQUARED 0.988, PBLUC_HILL_SLOPE 1.91, PBLUC_R_SQUARED 0.706, read-out: LUCIFERASE INFECTION ASSAY - IC50) was determined as 2.73 µM.
Regarding `C=CCn1c(COc2cc(C)ccc2C(C)C)nnc1SCC(=O)NCC12CC3CC(CC(C3)C1)C2`, the IC90 is > 10 µM. Besides, the IC50 (PBLUC_HILL_SLOPE 17.6, PBLUC_R_SQUARED 0.542, read-out: LUCIFERASE INFECTION ASSAY - IC50) worked out at 9.43 µM.
With `Cc1ccc(NN2C(=O)C=C(c3ccc(Cl)cc3)C2=O)cc1`, the IC90 is > 10.6 µM. Moreover, under setting [1], the half-maximal inhibitory concentration (IC50) is > 10.6 µM.
In the case of `Cc1ccc2c(Cl)c(C(=O)Nc3nonc3-c3ccccc3)sc2c1`, the 90% effect concentration (IC90) was 8.14 µM. Besides, the concentration for half-maximal inhibition (IC50) under setting [1] stood at 7.41 µM.
Regarding `Cc1ccc(-c2nc3c(s2)CN(C(=O)c2ccc4c(c2)OCO4)CC3)cc1`, the IC90 was > 8.72 µM. For the same compound, the IC50 (HEPG2TOX_HILL_SLOPE 8.84, HEPG2TOX_R_SQUARED 0.538, PBLUC_HILL_SLOPE 2.18, PBLUC_R_SQUARED 0.0909, read-out: LUCIFERASE INFECTION ASSAY - IC50) was found to be 7.14 µM.
Turning to `Cn1nnnc1Sc1ncnc2sc3c(c12)CCCC3`, the 90% effect concentration (IC90) is > 10 µM. Further, the half-inhibitory concentration (IC50) under setting [1] was > 10 µM.
With `FC(F)(F)c1cc(N/N=C2/CCSc3sccc32)cc(C(F)(F)F)c1`, the 90% effect concentration (IC90) is > 8.33 µM. Besides, for the setting “PBLUC_HILL_SLOPE 3.14, PBLUC_R_SQUARED 0.463, read-out: LUCIFERASE INFECTION ASSAY - IC50”, the IC50 is 4.15 µM.
Consider `Cc1cc(C)n(-c2cc(N3CCN(C)CC3)nc(-c3ccccc3)n2)n1`, for which the IC90 was > 9.47 µM. Moreover, the IC50 (PBLUC_HILL_SLOPE 14.6, PBLUC_R_SQUARED 0.207, read-out: LUCIFERASE INFECTION ASSAY - IC50) is 8.77 µM.
Regarding `COc1ccc(NC(=O)C(C)N2CCN(CCc3ccccc3)CC2)cc1Cl` (stereo not drawn), the 90% effect concentration (IC90) is > 10 µM. Further, under setting [1], the IC50 was > 10 µM.
Regarding `Fc1ccc(-c2cnc3cnc(-c4ccccc4Cl)cn23)cc1Cl`, the concentration for an effect of 90% (IC90) is > 9.21 µM. In addition, the half-inhibitory concentration (IC50) (PBLUC_HILL_SLOPE 3.59, PBLUC_R_SQUARED 0.419, read-out: LUCIFERASE INFECTION ASSAY - IC50) stood at 8.08 µM.
As to `COCc1nn2c3c(nnc2c1-c1ccccc1)C(=O)CC(c1ccccc1)C3` (stereo not drawn), the 90% effect concentration (IC90) came to 3.29 µM. Further, the IC50 (FFLUC_HILL_SLOPE 8, FFLUC_R_SQUARED 0.814, HEPG2TOX_HILL_SLOPE 2.3, HEPG2TOX_R_SQUARED 0.367, PBLUC_HILL_SLOPE 4.06, PBLUC_R_SQUARED 0.599, read-out: LUCIFERASE INFECTION ASSAY - IC50) worked out at 1.92 µM.
Regarding `CCN1CCN(c2ccc(NC(=O)CSc3nc4ccccc4s3)c(C)c2)CC1`, the concentration for an effect of 90% (IC90) is > 10 µM. Moreover, under setting [1], the half-maximal inhibitory concentration (IC50) was > 10 µM.
As to `Cc1sc2ncnc(Sc3nnc(-c4cccs4)n3-c3ccccc3)c2c1C`, the IC90 was found to be 3.96 µM. In addition, the half-inhibitory concentration (IC50) (PBLUC_HILL_SLOPE 13.8, PBLUC_R_SQUARED 0.706, read-out: LUCIFERASE INFECTION ASSAY - IC50) worked out at 3.37 µM.

The record behind these values is ChEMBL document CHEMBL4483862, “Open-source discovery of chemical leads for next-generation chemoprotective antimalarials” (2018).
